In ChEMBL document CHEMBL3526121, “Pharmacokinetics, bioavailability, tissue distribution, excretion, and metabolite identification of methoxyflavones in Kaempferia parviflora extract in rats” (Drug Metab Dispos, 2012):

Tests used:
[1] = Cmax in Wistar rat lung at 750 mg/kg, po by LC-MS/MS analysis; format: ADME, organism-based; parameters: dose 750 mg/kg, route oral
[2] = Drug excretion in Wistar rat urine at 750 mg/kg, po after 18 to 24 hrs by HPLC-UV analysis; format: ADME, organism-based; parameters: dose 750 mg/kg, route oral; details: in vivo
[3] = Cmax in Wistar rat brain at 750 mg/kg, po by LC-MS/MS analysis; format: ADME, organism-based; parameters: dose 750 mg/kg, route oral
[4] = Drug metabolism in Wistar rat assessed as excretion of 2-phenyl-5-((2S,3R,4S,5S,6R)-3,4,5-trihydroxy-6-(hydroxymethyl)tetrahydro-2H-pyran-2-yloxy)-4H-chromen-4-one in urine at 750 mg/kg, po by LC-MS and LC-MS/MS analysis; format: ADME, organism-based; parameters: dose 750 mg/kg, route oral; details: in vivo
[5] = Clearance in Wistar rat at 250 mg/kg, iv by HPLC analysis; format: ADME, organism-based; parameters: dose 250 mg/kg, route intravenous; details: in vivo
[6] = Elimination rate constant in Wistar rat at 250 mg/kg, po by HPLC analysis; format: ADME, organism-based; parameters: dose 250 mg/kg, route oral; details: in vivo, read-out: Ke (converted)
[7] = test system: Liver; assay: AUC (0.083 to 4 hrs) in Wistar rat liver at 750 mg/kg, po by LC-MS/MS analysis; format: ADME, organism-based; parameters: time 0.083-4 hr, dose 750 mg/kg, route oral; details: in vivo
[8] = Elimination rate constant in Wistar rat at 250 mg/kg, iv by HPLC analysis; format: ADME, organism-based; parameters: dose 250 mg/kg, route intravenous; details: Wistar, in vivo, read-out: Ke (converted)
[9] = Tmax in Wistar rat testes at 750 mg/kg, po by LC-MS/MS analysis; format: ADME, organism-based, Testis; parameters: dose 750 mg/kg, route oral
[10] = Drug excretion in Wistar rat feces at 750 mg/kg, po after 12 to 18 hrs by HPLC-UV analysis; format: ADME, organism-based; parameters: dose 750 mg/kg, route oral; details: in vivo
[11] = Half life in Wistar rat at 250 mg/kg, po by HPLC analysis; format: ADME, organism-based; parameters: dose 250 mg/kg, route oral; details: in vivo
[12] = AUC (0.083 to 4 hrs) in Wistar rat testes at 750 mg/kg, po by LC-MS/MS analysis; format: ADME, organism-based, Testis; parameters: time 0.083-4 hr, dose 750 mg/kg, route oral; details: in vivo
[13] = AUC in Wistar rat at 250 mg/kg, iv by HPLC analysis; format: ADME, organism-based; parameters: dose 250 mg/kg, route intravenous; details: plasma
[14] = Oral bioavailability in Wistar rat at 250 mg/kg by HPLC analysis; format: ADME, organism-based; details: in vivo
[15] = Drug excretion in Wistar rat feces at 750 mg/kg, po after 12 hrs by HPLC-UV analysis; format: ADME, organism-based; parameters: dose 750 mg/kg, route oral; details: in vivo
[16] = test system: Lung; assay: AUC (0.083 to 4 hrs) in Wistar rat lung at 750 mg/kg, po by LC-MS/MS analysis; format: ADME, organism-based; parameters: time upper 4 hr, time lower 0.083 hr, dose 750 mg/kg, route oral; details: in vivo
[17] = Drug excretion in Wistar rat feces at 750 mg/kg, po after up to 72 hrs by HPLC-UV analysis; format: ADME, organism-based; parameters: dose 750 mg/kg, route oral; details: faeces, read-out: Drug excretion
[18] = AUC in Wistar rat at 250 mg/kg, po by HPLC analysis; format: ADME, organism-based; parameters: dose 250 mg/kg, route oral; details: plasma
[19] = Drug metabolism in Wistar rat assessed as excretion of 7-methoxy-4-oxo-2-phenyl-4H-chromen-5-yl hydrogen sulfate in urine at 750 mg/kg, po by LC-MS and LC-MS/MS analysis; format: ADME, organism-based; parameters: dose 750 mg/kg, route oral; details: in vivo
[20] = Drug excretion in Wistar rat urine at 750 mg/kg, po after 12 hrs by HPLC-UV analysis; format: ADME, organism-based; parameters: dose 750 mg/kg, route oral; details: in vivo
[21] = test system: Rattus norvegicus; assay: Volume of distribution in Wistar rat at 250 mg/kg, po by HPLC analysis; format: ADME, organism-based; parameters: dose 250 mg/kg, route oral; details: in vivo
[22] = Tmax in Wistar rat at 250 mg/kg, po by HPLC analysis; format: ADME, organism-based; parameters: dose 250 mg/kg, route oral; details: in vivo
[23] = Tmax in Wistar rat kidney at 750 mg/kg, po by LC-MS/MS analysis; format: ADME, organism-based; parameters: dose 750 mg/kg, route oral
[24] = Cmax in Wistar rat at 250 mg/kg, po by HPLC analysis; format: ADME, organism-based; parameters: dose 250 mg/kg, route oral; details: in vivo
[25] = Cmax in Wistar rat kidney at 750 mg/kg, po by LC-MS/MS analysis; format: ADME, organism-based; parameters: dose 750 mg/kg, route oral
[26] = test system: Rattus norvegicus; assay: Absorption rate constant in Wistar rat at 250 mg/kg, po by HPLC analysis; format: ADME, organism-based; parameters: dose 250 mg/kg, route oral; details: in vivo
[27] = Clearance in Wistar rat at 250 mg/kg, po by HPLC analysis; format: ADME, organism-based; parameters: dose 250 mg/kg, route oral; details: in vivo
[28] = Cmax in Wistar rat testes at 750 mg/kg, po by LC-MS/MS analysis; format: ADME, organism-based, Testis; parameters: dose 750 mg/kg, route oral
[29] = Drug metabolism in Wistar rat assessed as excretion of 5,7-dihydroxy-2-phenyl-4H-chromen-4-one in urine/feces at 750 mg/kg, po by LC-MS and LC-MS/MS analysis; format: ADME, organism-based; parameters: dose 750 mg/kg, route oral; details: in vivo
[30] = Tmax in Wistar rat liver at 750 mg/kg, po by LC-MS/MS analysis; format: ADME, organism-based; parameters: dose 750 mg/kg, route oral
[31] = test system: Kidney; assay: AUC (0.083 to 4 hrs) in Wistar rat kidney at 750 mg/kg, po by LC-MS/MS analysis; format: ADME, organism-based; parameters: time 0.083-4 hr, dose 750 mg/kg, route oral; details: in vivo
[32] = Tmax in Wistar rat brain at 750 mg/kg, po by LC-MS/MS analysis; format: ADME, organism-based; parameters: dose 750 mg/kg, route oral
[33] = Drug excretion in Wistar rat urine at 750 mg/kg, po after up to 72 hrs by HPLC-UV analysis; format: ADME, organism-based; parameters: dose 750 mg/kg, route oral; details: read-out: Drug excretion
[34] = Tmax in Wistar rat lung at 750 mg/kg, po by LC-MS/MS analysis; format: ADME, organism-based; parameters: dose 750 mg/kg, route oral
[35] = Drug excretion in Wistar rat urine at 750 mg/kg, po after 72 hrs by HPLC-UV analysis; format: ADME, organism-based; parameters: dose 750 mg/kg, route oral; details: in vivo
[36] = test system: Brain; assay: AUC (0.083 to 4 hrs) in Wistar rat brain at 750 mg/kg, po by LC-MS/MS analysis; format: ADME, organism-based; parameters: time 0.083-4 hr, dose 750 mg/kg, route oral; details: in vivo
[37] = Half life in Wistar rat at 250 mg/kg, iv by HPLC analysis; format: ADME, organism-based; parameters: dose 250 mg/kg, route intravenous; details: Wistar, in vivo
[38] = Cmax in Wistar rat liver at 750 mg/kg, po by LC-MS/MS analysis; format: ADME, organism-based; parameters: dose 750 mg/kg, route oral
[39] = Drug metabolism in Wistar rat urine/feces treated with 750 mg/kg, po of 5,7-dimethoxyflavone by LC-MS and LC-MS/MS analysis; format: ADME, organism-based; parameters: dose 750 mg/kg, route oral; details: in vivo
[40] = Drug metabolism in Wistar rat urine/feces treated with 750 mg/kg, po of 5,7,4'-trimethoxyflavone by LC-MS and LC-MS/MS analysis; format: ADME, organism-based; parameters: dose 750 mg/kg, route oral; details: in vivo
[41] = Drug metabolism in Wistar rat urine/feces treated with 750 mg/kg, po of 3,5,7,3',4'-pentamethoxyflavone by LC-MS and LC-MS/MS analysis; format: ADME, organism-based; parameters: dose 750 mg/kg, route oral; details: in vivo

For `COc1cc(OC)c2c(=O)cc(-c3ccccc3)oc2c1` [CHRYSIN DIMETHYL ETHER], the Cmax [1] was 2000 ng/g, the Drug excretion [2] was “Active” and the Cmax [3] was 960 ng/g. For the same molecule, the Drug metabolism [4] was “metabolite_detected”, the clearance [5] was 0.133 mL/min and the k el [6] was 3.61e-05 s⁻¹. It also gave an AUC [7] of 8.6 µg·h/g, a k el [8] of 8.89e-05 s⁻¹ and a Tmax [9] of 2.86 h. For the same molecule, the Drug excretion [10] was “Active”, the half-life [11] was 5.85 h and the AUC [12] was 1.9 µg·h/g. The AUC [13] was 233 µg·h/mL, the bioavailability [14] was 2.1% and the Drug excretion [15] was “Active”. The AUC [16] was 2.17 µg·h/g, the dose excreted at 72 h [17] was 3.1% and the AUC [18] was 7.01 µg·h/mL. For the same molecule, the Drug metabolism [19] was “metabolite_detected”, the Drug excretion [20] was “Active” and the Vd [21] was 2957.53 mL. It also gave a Tmax [22] of 0.76 h, a Tmax [23] of 3.43 h and a Cmax [24] of 780 ng/mL. For the same molecule, the Cmax [25] was 1330 ng/g, the ka [26] was 8.69 h⁻¹ and the CL/F [27] was 6.12 mL/min. The Cmax [28] was 910 ng/g, the Drug metabolism [29] was “metabolite_detected” and the Tmax [30] was 2.57 h. It also gave an AUC [31] of 2.51 µg·h/g, a Tmax [32] of 3.14 h and a dose excreted at 72 h [33] of 0.96%. For the same molecule, the Tmax [34] was 1.2 h, the Drug excretion [35] was “metabolite_not_detected” and the AUC [36] was 1.91 µg·h/g. For the same molecule, the half-life [37] was 3.75 h and the Cmax [38] was 3850 ng/g.
With `O=c1cc(-c2ccccc2)oc2cc(O)cc(O)c12` [CHRYSIN] the Drug metabolism [39] was “metabolite_detected”.
For `COc1cc(O)c2c(=O)cc(-c3ccc(O)cc3)oc2c1` [GENKWANIN], the Drug metabolism [40] was “metabolite_detected”.
In the case of `COc1cc(O)c2c(=O)c(O)c(-c3ccc(OC)c(O)c3)oc2c1` [OMBUINE], the Drug metabolism [41] is reported as “metabolite_detected”.
